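In this assay, cells in 96-well plates receive the compound at five concentrations for 48 hours. Endpoints are linearly interpolated between the surrounding concentrations. GI50 = concentration required for 50% inhibition of growth.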 Activity calls are given as the source filed them. Rule as the data show it: active = GI50 up to about 1.1 µM and inactive = higher.
Experiments:
Experiment in all cases: growth of human tumour cells (NCI), 48 h
[1] = test system: A549
[2] = test system: CAKI-1
[3] = test system: CCRF-CEM
[4] = test system: HL-60
[5] = test system: HOP-92
[6] = test system: K562
[7] = test system: NCI-H23
[8] = test system: OVCAR-4
[9] = test system: RPMI-8226
[10] = test system: SF-539
[11] = test system: SK-MEL-5
[12] = test system: SN12C
[13] = test system: SNB-75
[14] = test system: U-251
[15] = test system: UACC-257

**Q.** What does the source list for O=C1[C@H]2ON(c3ccccc3)C(c3ccco3)[C@H]2C(=O)N1c1ccc(Cc2ccc(N3C(=O)[C@@H]4ON(c5ccccc5)C(c5ccco5)[C@@H]4C3=O)cc2)cc1 (some centres not stated)?
**A.** GI50 [1]: > 100 µM (inactive); GI50 [2]: > 100 µM (inactive); GI50 [3]: > 100 µM (inactive); GI50 [4]: > 100 µM (inactive); GI50 [5]: > 100 µM (inactive); GI50 [6]: > 100 µM (inactive); GI50 [7]: > 100 µM (inactive); GI50 [8]: > 100 µM (inactive); GI50 [9]: > 100 µM (inactive); GI50 [10]: > 100 µM (inactive); GI50 [11]: > 100 µM (inactive); GI50 [12]: > 100 µM (inactive); GI50 [13]: > 100 µM (inactive); GI50 [14]: > 100 µM (inactive); GI50 [15]: 47.5 µM (inactive)

**Q.** What does the source list for C(/COc1cccnc1)=N\NC1=NCCN1?
**A.** GI50 [1]: > 100 µM (inactive); GI50 [2]: > 100 µM (inactive); GI50 [3]: > 100 µM (inactive); GI50 [4]: > 100 µM (inactive); GI50 [5]: > 100 µM (inactive); GI50 [6]: > 100 µM (inactive); GI50 [7]: > 100 µM (inactive); GI50 [8]: > 100 µM (inactive); GI50 [9]: > 100 µM (inactive); GI50 [10]: > 100 µM (inactive); GI50 [11]: > 100 µM (inactive); GI50 [12]: > 100 µM (inactive); GI50 [13]: > 100 µM (inactive); GI50 [14]: > 100 µM (inactive); GI50 [15]: > 100 µM (inactive)

**Q.** Which GI50 [1] does the source give for CCc1cc(C)cc2[n+]1CC=C2.[O-][Cl+3]([O-])([O-])[O-] here?
**A.** 24.6 µM (inactive)

**Q.** And the GI50 [2]?
**A.** 28.2 µM (inactive)

**Q.** What about the GI50 [4] of the same molecule?
**A.** 0.125 µM (active)

**Q.** And the GI50 [5]?
**A.** 11.6 µM (inactive)

**Q.** What about the GI50 [7] of the same molecule?
**A.** 13.9 µM (inactive)

**Q.** And the GI50 [8]?
**A.** 34.1 µM (inactive)

**Q.** What about the GI50 [10] of the same molecule?
**A.** 26.7 µM (inactive)

**Q.** What about the GI50 [12] of the same molecule?
**A.** 22.2 µM (inactive)

**Q.** What about the GI50 [13] of the same molecule?
**A.** 22.9 µM (inactive)

**Q.** What about the GI50 [14] of the same molecule?
**A.** 39.5 µM (inactive)

**Q.** What about the GI50 [15] of the same molecule?
**A.** 3.55 µM (inactive)

**Q.** How did the GI50 [1] turn out when CC12CC(=O)OC(Cc3ccccc31)O2 (configuration not stated) was run?
**A.** > 100 µM (inactive)

**Q.** And the GI50 [3]?
**A.** > 100 µM (inactive)

**Q.** What about the GI50 [4] of the same molecule?
**A.** > 100 µM (inactive)

**Q.** And the GI50 [5]?
**A.** > 100 µM (inactive)

**Q.** And the GI50 [6]?
**A.** > 100 µM (inactive)

**Q.** What about the GI50 [7] of the same molecule?
**A.** > 100 µM (inactive)

**Q.** And the GI50 [9]?
**A.** > 100 µM (inactive)

**Q.** What about the GI50 [10] of the same molecule?
**A.** > 100 µM (inactive)

**Q.** What about the GI50 [12] of the same molecule?
**A.** > 100 µM (inactive)

**Q.** What about the GI50 [13] of the same molecule?
**A.** > 100 µM (inactive)

**Q.** And the GI50 [14]?
**A.** > 100 µM (inactive)

**Q.** And the GI50 [15]?
**A.** > 100 µM (inactive)

**Q.** How did the GI50 [1] turn out when COc1cc(-c2cc(-c3cc([N+](=O)[O-])c(/C=N/NC(=O)c4ccncc4)o3)ccc2OC)ccc1C was run?
**A.** > 100 µM (inactive)

**Q.** And the GI50 [2]?
**A.** > 100 µM (inactive)

**Q.** And the GI50 [3]?
**A.** > 10 µM (inactive)

**Q.** What about the GI50 [4] of the same molecule?
**A.** > 10 µM (inactive)

**Q.** What about the GI50 [5] of the same molecule?
**A.** > 100 µM (inactive)

**Q.** What about the GI50 [6] of the same molecule?
**A.** > 100 µM (inactive)

**Q.** And the GI50 [7]?
**A.** > 100 µM (inactive)

**Q.** And the GI50 [8]?
**A.** > 100 µM (inactive)

**Q.** What about the GI50 [9] of the same molecule?
**A.** > 100 µM (inactive)

**Q.** And the GI50 [10]?
**A.** > 100 µM (inactive)

**Q.** And the GI50 [12]?
**A.** > 100 µM (inactive)

**Q.** What about the GI50 [13] of the same molecule?
**A.** > 100 µM (inactive)

**Q.** What about the GI50 [15] of the same molecule?
**A.** > 100 µM (inactive)

**Q.** Which results are given for CCOC(=O)C(=O)Nc1nc2c(s1)C(=O)c1ccccc1C2=O?
**A.** GI50 [1]: 17.8 µM (inactive); GI50 [2]: 18.5 µM (inactive); GI50 [3]: 5.05 µM (inactive); GI50 [5]: 12.2 µM (inactive); GI50 [6]: 6.03 µM (inactive); GI50 [7]: 13.5 µM (inactive); GI50 [8]: 17.1 µM (inactive); GI50 [9]: 4.74 µM (inactive); GI50 [10]: 17.7 µM (inactive); GI50 [11]: 14.3 µM (inactive); GI50 [12]: 16.5 µM (inactive); GI50 [13]: 16.2 µM (inactive); GI50 [14]: 16.6 µM (inactive); GI50 [15]: 16.1 µM (inactive)

**Q.** Which GI50 [1] does the source give for COC(=O)[C@@]12OC[C@]34C([C@@H](O)C1O)[C@@]1(C)CC(=O)C(O)=C(C)C1C[C@H]3OC(=O)[C@H](OC(=O)CC(C)C(F)(F)F)[C@H]42 (some centres not stated) here?
**A.** 0.0265 µM (active)

**Q.** What about the GI50 [2] of the same molecule?
**A.** 0.056 µM (active)

**Q.** And the GI50 [3]?
**A.** 0.012 µM (active)

**Q.** What about the GI50 [4] of the same molecule?
**A.** 0.00375 µM (active)

**Q.** What about the GI50 [5] of the same molecule?
**A.** 0.00953 µM (active)

**Q.** And the GI50 [6]?
**A.** 0.0157 µM (active)

**Q.** And the GI50 [7]?
**A.** 0.0126 µM (active)

**Q.** And the GI50 [8]?
**A.** 0.0676 µM (active)

**Q.** What about the GI50 [9] of the same molecule?
**A.** 0.0116 µM (active)

**Q.** And the GI50 [10]?
**A.** 0.0105 µM (active)

**Q.** And the GI50 [11]?
**A.** 0.0125 µM (active)

**Q.** What about the GI50 [12] of the same molecule?
**A.** 0.145 µM (active)

**Q.** And the GI50 [13]?
**A.** 0.0445 µM (active)

**Q.** And the GI50 [14]?
**A.** 0.0205 µM (active)

**Q.** What about the GI50 [15] of the same molecule?
**A.** 0.0759 µM (active)

**Q.** Which GI50 [1] does the source give for CCN1/C(=C/C(C)=C/c2sc3ccccc3[n+]2CC)Sc2ccccc21 here?
**A.** 0.0843 µM (active)

**Q.** What about the GI50 [2] of the same molecule?
**A.** 0.203 µM (active)

**Q.** And the GI50 [3]?
**A.** 0.0261 µM (active)

**Q.** What about the GI50 [4] of the same molecule?
**A.** 0.0405 µM (active)

**Q.** What about the GI50 [5] of the same molecule?
**A.** < 0.01 µM (active)

**Q.** What about the GI50 [6] of the same molecule?
**A.** 0.034 µM (active)

**Q.** What about the GI50 [7] of the same molecule?
**A.** 0.0415 µM (active)

**Q.** What about the GI50 [8] of the same molecule?
**A.** 0.361 µM (active)

**Q.** What about the GI50 [9] of the same molecule?
**A.** 0.0223 µM (active)

**Q.** And the GI50 [10]?
**A.** 0.265 µM (active)

**Q.** What about the GI50 [11] of the same molecule?
**A.** 0.0925 µM (active)

**Q.** What about the GI50 [12] of the same molecule?
**A.** 0.234 µM (active)

**Q.** And the GI50 [13]?
**A.** 0.239 µM (active)

**Q.** What about the GI50 [14] of the same molecule?
**A.** 0.0378 µM (active)

**Q.** With O=CN/C=C/c1ccc(O)c(O)c1 as the molecule, how does the GI50 [1] read?
**A.** > 100 µM (inactive)

**Q.** What about the GI50 [2] of the same molecule?
**A.** > 100 µM (inactive)

**Q.** And the GI50 [3]?
**A.** > 100 µM (inactive)

**Q.** And the GI50 [4]?
**A.** 55 µM (inactive)

**Q.** What about the GI50 [5] of the same molecule?
**A.** > 100 µM (inactive)

**Q.** And the GI50 [6]?
**A.** > 100 µM (inactive)

**Q.** And the GI50 [7]?
**A.** > 100 µM (inactive)

**Q.** What about the GI50 [8] of the same molecule?
**A.** > 100 µM (inactive)

**Q.** What about the GI50 [9] of the same molecule?
**A.** > 100 µM (inactive)

**Q.** What about the GI50 [10] of the same molecule?
**A.** > 100 µM (inactive)

**Q.** And the GI50 [12]?
**A.** > 100 µM (inactive)

**Q.** And the GI50 [13]?
**A.** 59.8 µM (inactive)

**Q.** What about the GI50 [14] of the same molecule?
**A.** > 100 µM (inactive)

**Q.** And the GI50 [15]?
**A.** > 100 µM (inactive)

**Q.** O=c1cc(-c2ccc(O)cc2)oc2cc(O)cc(O)c12 [APIGENIN] was tested. Which GI50 [1] did it give?
**A.** 42.9 µM (inactive)

**Q.** What about the GI50 [3] of the same molecule?
**A.** 20.4 µM (inactive)

**Q.** And the GI50 [4]?
**A.** 29.7 µM (inactive)

**Q.** What about the GI50 [5] of the same molecule?
**A.** 20.2 µM (inactive)

**Q.** What about the GI50 [6] of the same molecule?
**A.** 32.7 µM (inactive)

**Q.** And the GI50 [7]?
**A.** 17.8 µM (inactive)

**Q.** And the GI50 [8]?
**A.** 32.2 µM (inactive)

**Q.** What about the GI50 [9] of the same molecule?
**A.** 37.7 µM (inactive)

**Q.** And the GI50 [10]?
**A.** > 10 µM (inactive)

**Q.** And the GI50 [11]?
**A.** 25.4 µM (inactive)

**Q.** And the GI50 [12]?
**A.** 30.4 µM (inactive)

**Q.** And the GI50 [13]?
**A.** 21.6 µM (inactive)

**Q.** What about the GI50 [14] of the same molecule?
**A.** 22.6 µM (inactive)

**Q.** What about the GI50 [15] of the same molecule?
**A.** 30.8 µM (inactive)
